Values quoted from earlier work as cited in patent US11195597B2, “Method and device for calculating acid dissociation constant, and program” (FUJITSU LIMITED, priority 2015, dated 2021).

Details: known measured value; dissociation point circled in the structure

| Structure (SMILES) | pKa |
| --- | --- |
| CC(C)C(=O)O.N [Number 5] | 9.69 |
| CC(CCCNC(N)N)C(=O)O.N (stereo not drawn) [Number 10] | 9.04 |
| CC(CCCNC(N)N)C(=O)O (stereo not drawn) [Number 11] | 12.48 |
| CC(CC(N)=O)C(=O)O.N (stereo not drawn) [Number 12] | 8.8 |
| CC(CC(=O)O)C(=O)O.N (stereo not drawn) [Number 13] | 9.82 |
| CCc1ccccc1.N [Number 14] | 9.34 |
| CCNCc1ccccc1 [Number 15] | 9.68 |
| CNCc1ccccc1 [Number 16] | 9.58 |
| CC1CCCCC1.N [Number 17] | 10.64 |
| CNC1CCCCC1 [Number 18] | 10.49 |
| CCCNCCC [Number 22] | 11 |
| CCC(C)NC(C)CC (stereo not drawn) [Number 23, di-sec-butylamine] | 11.01 |
| C=CCNCC=C [Number 24] | 9.29 |
| C=CCN(C)CC=C [Number 25] | 8.79 |
| CC(C)CNCC(C)C [Number 28, di-isobutylamine] | 10.5 |
| CCCCN(C)C [Number 32] | 10.02 |
| CCCN(C)C [Number 33] | 9.99 |
| CC(C)CN(C)C [Number 35] | 10.52 |
| CC(CCC(=O)O)C(=O)O.N (stereo not drawn) [Number 41] | 9.67 |

| Structure (SMILES) | pKa |
| --- | --- |
| CC(Cc1cnc[nH]1)C(=O)O.N (stereo not drawn) [Number 43] | 9.17 |
| CCC(C)C(C)C(=O)O.N (stereo not drawn) [Number 44] | 9.68 |
| CC(CCCCN)C(=O)O.N (stereo not drawn) [Number 47] | 8.95 |
| NCCCCC(N)C(=O)O (stereo not drawn) [Number 48] | 10.53 |
| O=C(c1ccccc1)N1CCNCC1 [Number 52] | 7.78 |
| CC(C)(C)CN [Number 58] | 10.21 |
| N[C@@H](Cc1ccccc1)C(=O)O [Number 59, phenylalanine] | 9.13 |
| NCCCCCc1ccccc1 [Number 60, phenylamylamine] | 10.49 |
| NCCCCc1ccccc1 [Number 61] | 10.4 |
| NCCCc1ccccc1 [Number 63] | 10.2 |
| O=C(O)C1CCCN1 (stereo not drawn) [Number 67] | 10.6 |
| NC(CO)C(=O)O (stereo not drawn) [Number 72] | 9.15 |
| C[C@@H](O)[C@H](N)C(=O)O [Number 75, threonine] | 9.1 |
| CCCCN(CCCC)CCCC [Number 76, tri-n-butylamine] | 10.89 |
| NC(Cc1c[nH]c2ccccc12)C(=O)O (stereo not drawn) [Number 82] | 9.39 |
| CC(C)C(N)C(=O)O (stereo not drawn) [Number 84] | 9.62 |
| COc1ccccn1 [Number 90, 2-methoxypyridine] | 3.3 |
| Nc1ccc2ccccc2c1 [Number 92, 2-naphthalamine] | 4.16 |
| N#Cc1ccccn1 [Number 93, 2-cyanopyridine] | −0.3 |

| Structure (SMILES) | pKa |
| --- | --- |
| O=[N+]([O-])c1ccccn1 [Number 94, 2-nitropyridine] | −2.6 |
| COc1cccnc1 [Number 96, 3-methoxypyridine] | 4.9 |
| Cc1cccnc1 [Number 97] | 5.7 |
| N#Cc1cccnc1 [Number 98, 3-cyanopyridine] | 1.4 |
| O=[N+]([O-])c1cccnc1 [Number 99, 3-nitropyridine] | 0.6 |
| c1ccc(-c2cccnc2)cc1 [Number 100, 3-phenylpyridine] | 4.8 |
| COc1ccncc1 [Number 101, 4-methoxypyridine] | 6.6 |
| N#Cc1ccncc1 [Number 103, 4-cyanopyridine] | 1.9 |
| O=[N+]([O-])c1ccncc1 [Number 104, 4-nitropyridine] | 1.6 |
| c1ccc(-c2ccncc2)cc1 [Number 105, 4-phenylpyridine] | 5.5 |
| c1ccc(Nc2ccccc2)cc1 [Number 108] | 0.78 |
| CN(C)c1ccccc1 [Number 109] | 5.2 |
| c1ccc2[nH]cnc2c1 [Number 112] | 16.4 |
| c1ccc2cc3ncccc3cc2c1 [Number 113] | 5.05 |
| c1ccc2c(c1)[nH]c1ccccc12 [Number 114] | 19.9 |
| c1ccc2cnccc2c1 [Number 120, isoquinoline] | 5.14 |
| c1ncc2[nH]cnc2n1 [Number 123] | 2.5 |
| c1ncc2[nH]cnc2n1 [Number 124] | 8.9 |
| c1ccc2c(c1)CCCN2 [Number 132, tetrahydroquinoline] | 5 |
